The assay addresses T1, human capsaicin receptor (VR1) (Homo sapiens, UniProt Q8NER1).
T1 construct: transfected with the pBK-CMV expression construct encoding the full length human capsaicin receptor; expressed in transfected cells
Briefly: Capsaicin receptor binding assay ([3H]RTX competition). In outline: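 Membranes from HEK293 cells stably expressing full-length human VR1; competition against 60 pM [3H]RTX, 60 min at 37 °C in HEPES/sucrose buffer pH 7.4 with 0.25 mg/ml BSA. Non-specific binding defined with 1 μM unlabelled RTX; alpha1-acid glycoprotein added after termination on ice.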

Like-named read-outs stand apart in the source and are kept apart here.

T1 sequence (Q8NER1 whole entry): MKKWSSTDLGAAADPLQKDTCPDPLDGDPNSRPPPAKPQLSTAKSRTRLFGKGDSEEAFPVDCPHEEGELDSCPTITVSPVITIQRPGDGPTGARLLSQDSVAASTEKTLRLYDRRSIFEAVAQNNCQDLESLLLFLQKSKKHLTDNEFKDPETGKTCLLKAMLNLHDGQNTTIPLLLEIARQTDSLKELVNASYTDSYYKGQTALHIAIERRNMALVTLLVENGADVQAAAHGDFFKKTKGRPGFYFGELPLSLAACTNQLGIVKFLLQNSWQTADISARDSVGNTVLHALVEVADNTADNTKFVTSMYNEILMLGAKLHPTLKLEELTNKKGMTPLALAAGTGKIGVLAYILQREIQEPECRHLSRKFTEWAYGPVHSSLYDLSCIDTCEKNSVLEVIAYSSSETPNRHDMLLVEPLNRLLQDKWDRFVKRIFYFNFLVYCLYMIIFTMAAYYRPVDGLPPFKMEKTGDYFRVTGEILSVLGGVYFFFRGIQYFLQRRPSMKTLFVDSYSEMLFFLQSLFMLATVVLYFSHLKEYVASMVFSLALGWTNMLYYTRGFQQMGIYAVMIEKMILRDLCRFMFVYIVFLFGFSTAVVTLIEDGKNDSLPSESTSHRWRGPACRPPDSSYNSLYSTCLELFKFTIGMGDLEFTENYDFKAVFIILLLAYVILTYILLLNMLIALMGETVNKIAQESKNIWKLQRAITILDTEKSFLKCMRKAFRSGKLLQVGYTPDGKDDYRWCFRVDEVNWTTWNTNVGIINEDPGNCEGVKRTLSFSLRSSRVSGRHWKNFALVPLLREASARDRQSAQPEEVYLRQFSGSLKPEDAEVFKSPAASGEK

On to `CC(C)(C)c1ccc(NC(=O)c2ccc(-c3ncccc3NS(=O)(=O)c3ccc(F)cc3)cc2)cc1` [Compound 423, N-(4-tert-Butyl-phenyl)-4-[3-(4-fluoro-benzenesulfonylamino)-pyridin-2-yl]-benzamide], for which the Ki (usually a measure of affinity in units of concentration, obtained from inhibition or displacement) (read-out: Ki) was less than 1000 nM.

For `Cc1nnc(-c2cccnc2-c2ccc(C(=O)Nc3ccc(C(C)(C)C)cc3)cc2)o1` [Compound 424, N-(4-tert-Butyl-phenyl)-4-[3-(5-methyl-[1,3,4]oxadiazol-2-yl)-pyridin-2-yl]-benzamide], the Ki (read-out: Ki) was less than 1000 nM.

`CN(c1cccnc1-c1ccc(C(=O)Nc2ccc(C(C)(C)C)cc2)cc1)S(C)(=O)=O` [Compound 425, N-(4-tert-Butyl-phenyl)-4-[3-(methanesulfonyl-methyl-amino)-pyridin-2-yl]-benzamide]: under “read-out: Ki”, the Ki is less than 1000 nM.

As to `CC(C)(C)c1ccc(NC(=O)c2ccc(-c3ncccc3N(S(C)(=O)=O)S(C)(=O)=O)cc2)cc1` [Compound 426, N-(4-tert-Butyl-phenyl)-4-[3-(N,N-dimethanesulfonyl)amino-pyridin-2-yl]-benzamide], the Ki (read-out: Ki) was less than 1000 nM.

`CC(C)(C)c1ccc(NC(=O)c2ccc(-c3ccncc3N(S(C)(=O)=O)S(C)(=O)=O)cc2)cc1` [Compound 427, N-(4-tert-Butyl-phenyl)-4-[3-(N,N-dimethanesulfonyl)amino-pyridin-4-yl]-benzamide]: the Ki (read-out: Ki) is less than 1000 nM.

With `Cc1ccc(S(=O)(=O)Nc2cccnc2-c2ccc(C(=O)Nc3ccc(C(C)(C)C)cc3)cc2)cc1` [Compound 428, N-(4-tert-Butyl-phenyl)-4-[3-(toluene-4-sulfonylamino)-pyridin-2-yl]-benzamide], the Ki (read-out: Ki) was less than 1000 nM.

On to `CC(C)(C)c1ccc(NC(=O)c2ccc(C3CCCCN3)cc2)cc1` (centres unmarked) [Compound 429, N-(4-tert-Butyl-phenyl)-4-piperidin-2-yl-benzamide], for which the inhibition constant (Ki) (read-out: Ki) was less than 1000 nM.

As to `CC(C)(C)c1ccc(NC(=O)c2ccc(-c3ccccn3)cc2)cc1` [Compound 430, N-(4-tert-Butyl-phenyl)-4-pyridin-2-yl-benzamide], the Ki (read-out: Ki) is less than 1000 nM.

For `CC(C)(C)c1ccc(NC(=O)c2ccc(-c3cccnc3)cc2)cc1` [Compound 431, N-(4-tert-Butyl-phenyl)-4-pyridin-3-yl-benzamide], the Ki (read-out: Ki) is less than 1000 nM.

On to `CC(C)(C)c1ccc(NC(=O)c2ccc(-c3ccncc3)cc2)cc1` [Compound 432, N-(4-tert-Butyl-phenyl)-4-pyridin-4-yl-benzamide], for which, where the note is “read-out: Ki”, the Ki was less than 1000 nM.

Turning to `CC(C)(C)c1ccc(NC(=O)c2ccc(-c3ncccn3)cc2)cc1` [Compound 433, N-(4-tert-Butyl-phenyl)-4-pyrimidin-2-yl-benzamide], the Ki (read-out: Ki) was less than 1000 nM.

`CC(C)(C)c1ccc(NC(=O)c2ccc(-c3cnc4ccccc4c3)cc2)cc1` [Compound 434, N-(4-tert-Butyl-phenyl)-4-quinolin-3-yl-benzamide]: for the setting “read-out: Ki”, the Ki is less than 1000 nM.

For the compound `CC(C)(C)c1ccc(NC(=O)c2cnc(-c3ccccc3Cl)c(Cl)c2)cc1` [Compound 435, N-(4-tert-Butyl-phenyl)-5-chloro-6-(2-chloro-phenyl)-nicotinamide], the Ki (read-out: Ki) was less than 1000 nM.

Consider `CC(C)(C)c1ccc(NC(=O)c2cnc(-c3ccccc3)c(Cl)c2)cc1` [Compound 436, N-(4-tert-Butyl-phenyl)-5-chloro-6-phenyl-nicotinamide], for which, under “read-out: Ki”, the Ki was less than 1000 nM.

`CC(C)(C)c1ccc(NC(=O)c2ccc(-c3ccc(F)cc3F)nc2)cc1` [Compound 437, N-(4-tert-Butyl-phenyl)-6-(2,4-difluoro-phenyl)-nicotinamide]: the Ki (read-out: Ki) was less than 1000 nM.

Turning to `CC(C)(C)c1ccc(NC(=O)c2ccc(-c3c(F)cccc3F)nc2)cc1` [Compound 438, N-(4-tert-Butyl-phenyl)-6-(2,6-difluoro-phenyl)-nicotinamide], under “read-out: Ki”, the Ki is less than 1000 nM.

Turning to `Cc1cccc(C)c1-c1ccc(C(=O)Nc2ccc(C(C)(C)C)cc2)cn1` [Compound 439, N-(4-tert-Butyl-phenyl)-6-(2,6-dimethyl-phenyl)-nicotinamide], the Ki (read-out: Ki) was less than 1000 nM.

With `CCOc1ccc(-c2ccc(C(=O)Nc3ccc(C(C)(C)C)cc3)cn2)c(Cl)c1` [Compound 440, N-(4-tert-Butyl-phenyl)-6-(2-chloro-4-ethoxy-phenyl)-nicotinamide], where the note is “read-out: Ki”, the Ki is less than 1000 nM.

On to `CC(C)(C)c1ccc(NC(=O)c2cnc(-c3ccccc3Cl)cc2O)cc1` [Compound 441, N-(4-tert-Butyl-phenyl)-6-(2-chloro-phenyl)-4-hydroxy-nicotinamide], for which the inhibition constant Ki (read-out: Ki) was less than 1000 nM.

On to `CC(C)(C)c1ccc(NC(=O)c2ccc(-c3ccccc3Cl)nc2)cc1` [Compound 442, N-(4-tert-Butyl-phenyl)-6-(2-chloro-phenyl)-nicotinamide], for which the Ki (read-out: Ki) is less than 1000 nM.

For the compound `CC(C)(C)c1ccc(NC(=O)c2ccc(-c3ccccc3F)nc2)cc1` [Compound 443, N-(4-tert-Butyl-phenyl)-6-(2-fluoro-phenyl)-nicotinamide], where the note is “read-out: Ki”, the Ki was less than 1000 nM.

With `CC(C)(C)c1ccc(NC(=O)c2ccc(-c3ccccc3CO)nc2)cc1` [Compound 444, N-(4-tert-Butyl-phenyl)-6-(2-hydroxymethyl-phenyl)-nicotinamide], the Ki (read-out: Ki) was less than 1000 nM.

`CC(C)(C)c1ccc(NC(=O)c2ccc(-c3ccccc3NS(C)(=O)=O)nc2)cc1` [Compound 445, N-(4-tert-Butyl-phenyl)-6-(2-methanesulfonylamino-phenyl)-nicotinamide]: the Ki (read-out: Ki) is less than 1000 nM.

Turning to `CC(C)(C)c1ccc(NC(=O)c2ccc(-c3ccccc3[N+](=O)[O-])nc2)cc1` [Compound 446, N-(4-tert-Butyl-phenyl)-6-(2-nitro-phenyl)-nicotinamide], the Ki (read-out: Ki) was less than 1000 nM.

For the compound `CC(C)(C)c1ccc(NC(=O)c2ccc(-c3ccccc3C(F)(F)F)nc2)cc1` [Compound 447, N-(4-tert-Butyl-phenyl)-6-(2-trifluoromethyl-phenyl)-nicotinamide], the Ki (read-out: Ki) is less than 1000 nM.

Turning to `CC(C)(C)c1ccc(NC(=O)c2ccc(-c3cccc(F)c3)nc2)cc1` [Compound 448, N-(4-tert-Butyl-phenyl)-6-(3-fluoro-phenyl)-nicotinamide], the Ki (read-out: Ki) was less than 1000 nM.

As to `COc1cccc(-c2ccc(C(=O)Nc3ccc(C(C)(C)C)cc3)cn2)c1` [Compound 449, N-(4-tert-Butyl-phenyl)-6-(3-methoxy-phenyl)-nicotinamide], the inhibitory constant (Ki) (read-out: Ki) is less than 1000 nM.

As for `CC(C)(C)c1ccc(NC(=O)c2ccc(-c3ccc(O)cc3)nc2)cc1` [Compound 450, N-(4-tert-Butyl-phenyl)-6-(4-hydroxy-phenyl)-nicotinamide], the Ki (read-out: Ki) was less than 1000 nM.

Take `CC(C)(C)c1ccc(NC(=O)c2ccc(-c3ccccc3N(S(C)(=O)=O)S(C)(=O)=O)nc2)cc1` [Compound 451, N-(4-tert-Butyl-phenyl)-6-[2-(N,N-dimethanesulfonyl)amino-phenyl]-nicotinamide]: the Ki (read-out: Ki) was less than 1000 nM.

Regarding `Cc1cccc(-c2ccc(C(=O)Nc3ccc(C(C)(C)C)cc3)cn2)c1` [Compound 452, N-(4-tert-Butyl-phenyl)-6-m-tolyl-nicotinamide], where the note is “read-out: Ki”, the Ki was less than 1000 nM.

Consider `Cc1ccccc1-c1ccc(C(=O)Nc2ccc(C(C)(C)C)cc2)cn1` [Compound 453, N-(4-tert-Butyl-phenyl)-6-o-tolyl-nicotinamide], for which the Ki (read-out: Ki) is less than 1000 nM.

In the case of `CC(C)(C)c1ccc(NC(=O)c2ccc(-c3ccccc3)nc2)cc1` [Compound 454, N-(4-tert-Butyl-phenyl)-6-phenyl-nicotinamide], the Ki (read-out: Ki) was less than 1000 nM.

On to `CS(=O)(=O)N(c1cccnc1-c1ccc(C(=O)Nc2ccc(C(F)(F)F)cc2)cc1)S(C)(=O)=O` [Compound 456, N-(4-Trifluoromethyl-phenyl)-4-[3-(N,N-dimethanesulfonyl)amino-pyridin-2-yl]-benzamide], for which the inhibition constant Ki (read-out: Ki) was less than 1000 nM.

With `CS(=O)(=O)N(c1cccnc1-c1ccc(C(=O)Nc2ccc(C(F)(F)F)cn2)cc1)S(C)(=O)=O` [Compound 457, N-(5-Trifluoromethyl-pyridin-2-yl)-4-[3-(N,N-dimethanesulfonyl)amino-pyndin-2-yl]-benzamide], the Ki (read-out: Ki) was less than 1000 nM.

Compound `CCC1(c2ccc(NC(=O)c3ccc(-c4ncccc4F)cc3)cc2)CCC(=O)NC1=O` (centres unmarked) [Compound 458, N-[4-(3-Ethyl-2,6-dioxo-piperidin-3-yl)-phenyl]-4-(3-fluoro-pyridin-2-yl)-benzamide] showed a Ki of less than 1000 nM.

`Cc1ccccc1-c1ccc(C(=O)Nc2ccc(Oc3ccc(Cl)cc3)cc2)cn1` [Compound 459, N-[4-(4-Chloro-phenoxy)-phenyl]-6-o-tolyl-nicotinamide]: for the setting “read-out: Ki”, the Ki was less than 1000 nM.

Turning to `CC(C)c1cccc(-c2ccc(C(=O)Nc3ccc4c(c3)CCC4)cn2)c1` [Compound 462, N-Indan-5-yl-6-(3-isopropyl-phenyl)-nicotinainide], the Ki (read-out: Ki) is less than 1000 nM.

As to `COc1cccc(-c2ccc(C(=O)Nc3ccc4c(c3)CCC4)cn2)c1` [Compound 463, N-Indan-5-yl-6-(3-methoxy-phenyl)-nicotinamide], the Ki (read-out: Ki) is less than 1000 nM.

Take `O=C(Nc1ccc2c(c1)CCC2)c1ccc(-c2cccc(OC(F)(F)F)c2)nc1` [Compound 464, N-Indan-5-yl-6-(3-trifluoromethoxy-phenyl)-nicotinamide]: for the setting “read-out: Ki”, the Ki is less than 1000 nM.

In the case of `Cc1ccccc1-c1ccc(C(=O)Nc2ccc3c(c2)CCC3)cn1` [Compound 470, N-Indan-5-yl-6-o-tolyl-nicotinamide], where the note is “read-out: Ki”, the Ki is less than 1000 nM.

Regarding `O=C(Nc1ccc2c(c1)CCC2)c1ccc(-c2ccccc2)nc1` [Compound 471, N-Indan-5-yl-6-phenyl-nicotinamide], the Ki (read-out: Ki) is less than 1000 nM.

The record behind these values is patent US20060100245A1, “Substituted biphenyl-4-carboxylic acid arylamide analogues” (Neurogen Corporation, priority 2002, published 2006).
